Patent US20090176817A1, “Method of Treatment of Diarrhea-Predominant Irritable Bowel Syndrome in a Subject” (priority 2005, published 2009)

Experiments:
clinical [1] = conditions: human, in vivo, po
Protocol: (§1) Two randomized, double-blind, placebo controlled, rising dose, crossover studies evaluated the single-dose pharmacokinetics of oral cilansetron over a 4 mg to 64 mg dose range. In one study, 24 male subjects (aged 21-36 years) received, at intervals of […], single oral doses of 4, 8, and 16 mg cilansetron in ascending order and a randomized placebo. In the other study, 24 male subjects received, at intervals of ≧1 week, single oral doses of 16, 32, and 64 mg cilansetron in ascending order and a randomized placebo. All doses were administered under fasted conditions. […] Renal excretion of cilansetron was negligible across all doses, with undetectable or very low amounts (<1% of the dose) excreted unchanged in urine.
(§2) Data for the evaluation of dose proportionality of oral cilansetron is available from three studies which have evaluated the pharmacokinetics of single doses over a 2 mg to 64 mg dose range. Two randomized, double-blind, placebo controlled, rising dose, crossover studies, in 24 male subjects each, evaluated the single dose pharmacokinetics of oral cilansetron (capsules) over a 4-16 mg and 16-64 mg dose range, respectively. In each study, subjects received, at intervals of ≧1 week, single oral doses of cilansetron in ascending order and a randomized placebo. All doses were administered under fasted conditions. A third open-label, randomized, parallel-group study in 36 male and female subjects, evaluated the single dose pharmacokinetics of a cilansetron 2 mg tablet administered under fed conditions. FIG. 16 to FIG. 19 present box plots of cilansetron AUC(0-inf) and Cmax from these three studies (males only), and corresponding dose-normalized values (normalized to a 1 mg dose). […] Table 2.7.2.3.14 presents descriptive statistics of cilansetron dose-normalized AUC and Cmax in these studies, and the results of statistical comparisons between doses.

clinical [2] = conditions: human, in vivo, po; remark: listed apart in the source
Protocol: as §1, §2

clinical [3] = conditions: male, human, in vivo
Protocol: The single- and multiple-dose pharmacokinetics of cilansetron 8 mg administered intravenously have been studied in a randomized, double-blind, placebo controlled, parallel group study in 12 male subjects (10 subjects received cilansetron 8 mg and 2 received placebo, administered as a 30-minute infusion). […] Doses on pharmacokinetic days were administered under fasted conditions. […] Renal elimination was again observed to be negligible (≦1% of dose).

[4] = system: healthy, elderly subjects; assay: Study K.241.5013: gastric emptying time, elderly, 4 mg TID; type: in vivo, human; conditions: 4 mg TID oral 14 days, mean (SD)
Source text: The effect of cilansetron on gastric emptying time and colonic transit time has been studied in 1 clinical study in healthy young subjects and 2 studies in elderly subjects. For measurement of gastric emptying time, breath samples for the determination of the ^12C/^13C ratio were taken on the last day of each treatment period immediately after ingestion of a ^13C labeled meal. The patients' breath was collected in separate 15-minute intervals, for four hours in total. ^13CO2 measurements were performed with an isotope ratio mass spectrometer. The half-life (TK) and lag-time (Tlag), which describe the duration of gastric emptying, were used as the primary parameters to evaluate gastric emptying time. In all 3 studies, colonic transit time was measured by administration of radio-opaque markers for the last six days of each treatment period, followed by a single abdominal X-ray image at 24 hours after ingestion of the last set of markers. The numbers of markers within the colon were used to calculate segmental (right colon, left colon, and rectosigmoid) and total colonic transit time.
Studies K.241.5013 and K.241.5014 were randomized, double-blind, placebo-controlled, 2-way crossover studies in 8 healthy male and female elderly subjects, each (ITT population, aged 64-83 years in K.241.5013 and 66-84 years in K.241.5014). […]

Compound: Cc1nccn1C[C@H]1CCc2c(c3cccc4c3n2CCC4)C1=O [Cilansetron, (R)-(−)-4,5,6,8,9,10-hexahydro-10-[(2-methyl-1H-imidazol-1-yl)methyl]-11H-pyrido-[3,2,1-jk]-carbazol-11-one]
- CL/F (clinical [1]; 4 mg): 3864 (69) mL/min
- CL/F (clinical [1]; 8 mg): 3851 (103) mL/min
- DN-AUC(0-inf) ratio 8 mg/4 mg (clinical [1]; male): 109%
- DN-AUC(0-inf) ratio 16 mg/4 mg (clinical [1]; male): 117%
- DN-AUC(0-inf) ratio 16 mg/8 mg (clinical [1]; male): 108%
- DN-AUC(0-last) ratio 8 mg/4 mg (clinical [1]; male): 120%
- DN-AUC(0-last) ratio 16 mg/4 mg (clinical [1]; male): 132%
- DN-AUC(0-last) ratio 16 mg/8 mg (clinical [1]; male): 110%
- DN-Cmax ratio 8 mg/4 mg (clinical [1]; male): 115%
- DN-Cmax ratio 16 mg/4 mg (clinical [1]; male): 122%
- DN-Cmax ratio 16 mg/8 mg (clinical [1]; male): 107%
- Dose excreted unchanged in urine (clinical [1]; male): < 1%
- Tmax (clinical [1]; male): 1 to 1.25 h
- half-life (clinical [1]; male): 1.2 to 1.6 h
- AUC(0-inf) (clinical [1]; male, 4 mg): 26.7 ng·h/mL
- AUC(0-t) (clinical [1]; male, 4 mg): 23.2 ng·h/mL
- Cmax (clinical [1]; male, 4 mg): 9.88 ng/mL
- Tmax (clinical [1]; male, 4 mg): 1.25 h
- Vd/F (clinical [1]; male, 4 mg): 522 L
- half-life (clinical [1]; male, 4 mg): 1.56 h
- AUC(0-inf) (clinical [1]; male, 8 mg): 59.4 ng·h/mL
- AUC(0-t) (clinical [1]; male, 8 mg): 55.5 ng·h/mL
- Cmax (clinical [1]; male, 8 mg): 22.1 ng/mL
- Tmax (clinical [1]; male, 8 mg): 1 h
- Vd/F (clinical [1]; male, 8 mg): 472 L
- half-life (clinical [1]; male, 8 mg): 1.47 h
- Tmax (clinical [1]; male, 16 mg): 1 h
- CL/F (clinical [2]; 32 mg): 2487 (79) mL/min
- CL/F (clinical [2]; 64 mg): 1910 (60) mL/min
- DN-AUC(0-inf) ratio 32 mg/16 mg (clinical [2]; male): 127%
- DN-AUC(0-inf) ratio 64 mg/16 mg (clinical [2]; male): 158%
- DN-AUC(0-inf) ratio 64 mg/32 mg (clinical [2]; male): 125%
- DN-AUC(0-last) ratio 32 mg/16 mg (clinical [2]; male): 132%
- DN-AUC(0-last) ratio 64 mg/16 mg (clinical [2]; male): 168%
- DN-AUC(0-last) ratio 64 mg/32 mg (clinical [2]; male): 127%
- DN-Cmax ratio 32 mg/16 mg (clinical [2]; male): 127%
- DN-Cmax ratio 64 mg/16 mg (clinical [2]; male): 164%
- DN-Cmax ratio 64 mg/32 mg (clinical [2]; male): 129%
- CL renal (clinical [2]; male, 16 mg): 3.39 mL/min
- Tmax (clinical [2]; male, 16 mg): 1 h
- AUC(0-inf) (clinical [2]; male, 32 mg): 330 ng·h/mL
- AUC(0-t) (clinical [2]; male, 32 mg): 324 ng·h/mL
- CL renal (clinical [2]; male, 32 mg): 5 mL/min
- Cmax (clinical [2]; male, 32 mg): 143 ng/mL
- Tmax (clinical [2]; male, 32 mg): 1 h
- Vd/F (clinical [2]; male, 32 mg): 269 L
- half-life (clinical [2]; male, 32 mg): 1.28 h
- AUC(0-inf) (clinical [2]; male, 64 mg): 813 ng·h/mL
- AUC(0-t) (clinical [2]; male, 64 mg): 807 ng·h/mL
- CL renal (clinical [2]; male, 64 mg): 4.5 mL/min
- Cmax (clinical [2]; male, 64 mg): 349 ng/mL
- Tmax (clinical [2]; male, 64 mg): 1 h
- Vd/F (clinical [2]; male, 64 mg): 204 L
- half-life (clinical [2]; male, 64 mg): 1.3 h
- Intersubject % CV for AUC (clinical [3]): 31-34%
- Intrasubject % CV (clinical [3]): 18%
- Renal elimination (clinical [3]): ≤ 1 % of dose
- % Dose (urine) (clinical [3]; iv): 0.44 (70) %
- Linearity Ratio (clinical [3]; iv): 118%
- DN-AUC (clinical [3]; iv, 8 mg): 22.8 (31) ng · h/mL
- AUC (clinical [3]; iv, 8 mg, AUC): 182 ng·h/mL
- clearance (clinical [3]; iv, 8 mg, CL): 792 mL/min
- CL renal (clinical [3]; iv, 8 mg, CLr): 3.29 mL/min
- clearance (clinical [3]; iv, 8 mg, Systemic plasma clearance): 800 mL/min
- half-life (clinical [3]; iv, 8 mg, T½): 1.7 h
- gastric emptying time Tlag [4]: 122 (24) min
- gastric emptying time T½ [4]: 183 (32) min
